Reference: the supplement of paper PMC9265050, “Inhibition of RNA Binding in SND1 Increases the Levels of miR-1-3p and Sensitizes Cancer Cells to Navitoclax” (Cancers, 2022)

System: SW480
Assay: drug sensitivity score (DSS, integrated dose-response area); higher = more sensitive (stronger viability reduction); extreme values may be limits of the assay
In short: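 SW480 cells stably carrying doxycycline-inducible control or SND1-targeting shRNA were induced with 0.1 µg/mL doxycycline for 7 days. They were then plated at 1000 cells per well in 384-well plates holding 525 commercially available small-molecule inhibitors at five concentrations. Viability was read with CellTiter-Glo after 72 h. The drug sensitivity score integrates the area under a fitted non-linear dose–response model.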

[1] = shRNA: SND1 shRNA1 (SND1 silenced)
[2] = shRNA: SND1 shRNA2 (SND1 silenced)
[3] = shRNA: control shRNA (non-targeting)

Compound | drug sensitivity score [1] | drug sensitivity score [2] | drug sensitivity score [3]
CC(C)N(C[C@H]1O[C@@H](n2cnc3c(N)ncnc32)[C@H](O)[C@@H]1O)[C@H]1C[C@@H](CCc2nc3cc(C(C)(C)C)ccc3[nH]2)C1 [Pinometostat] | 0 DSS | 2.6 DSS | 0 DSS
O=C(CCBr)N1CCN(C(=O)CCBr)CC1 [Pipobroman] | 0.1 DSS | 1.5 DSS | 0.1 DSS
NCCNc1ccc(NCCN)c2c1C(=O)c1ccncc1C2=O [Pixantrone] | 0 DSS | 0 DSS | 0 DSS
c1cc(CN2CCCNCCNCCCNCC2)ccc1CN1CCCNCCNCCCNCC1 [Plerixafor] | 0 DSS | – | 0 DSS
CO[C@H](C(=O)[C@@H](O)[C@@H](C)O)[C@@H]1Cc2cc3cc(O[C@H]4C[C@@H](O[C@@H]5C[C@@H](O)[C@H](O)[C@@H](C)O5)[C@H](O)[C@@H](C)O4)c(C)c(O)c3c(O)c2C(=O)[C@H]1O[C@H]1C[C@@H](O[C@@H]2C[C@@H](O)[C@@H](O[C@@H]3C[C@](C)(O)[C@H](O)[C@@H](C)O3)[C@@H](C)O2)[C@H](O)[C@@H](C)O1 [Plicamycin] | 1.9 DSS | 0 DSS | 3.5 DSS
Nc1cccc2c1C(=O)N(C1CCC(=O)NC1=O)C2=O (stereo not given) [Pomalidomide] | 0 DSS | 0 DSS | 0 DSS
Cc1ccc(C(=O)Nc2ccc(CN3CCN(C)CC3)c(C(F)(F)F)c2)cc1C#Cc1cnc2cccnn12 [Ponatinib] | 5.9 DSS | 4.8 DSS | 4.4 DSS
C=CC(=O)N1CCC(Oc2cc3c(Nc4ccc(Cl)c(Cl)c4F)ncnc3cc2OC)CC1 [Poziotinib] | 0.6 DSS | 4.1 DSS | 0.2 DSS
CCCCc1nc2cc(/C=C/C(=O)NO)ccc2n1CCN(CC)CC [Pracinostat] | 21.1 DSS | 17.2 DSS | 19.3 DSS
CC[C@H](C)C(=O)O[C@H]1C[C@H](O)C=C2C=C[C@H](C)[C@H](CC[C@@H](O)C[C@@H](O)CC(=O)O)[C@H]21 [Pravastatin] | 0 DSS | – | 3.1 DSS
C[C@]12C=CC(=O)C=C1CC[C@@H]1[C@@H]2[C@@H](O)C[C@@]2(C)[C@H]1CC[C@]2(O)C(=O)CO [Prednisolone] | 0 DSS | 0 DSS | 0 DSS
C[C@]12C=CC(=O)C=C1CC[C@@H]1[C@@H]2C(=O)C[C@@]2(C)[C@H]1CC[C@]2(O)C(=O)CO [Prednisone] | 0.5 DSS | 0.1 DSS | 2.9 DSS
COc1cccc(OCCCN)c1-c1cc(Nc2cnc(C#N)cn2)n[nH]1 [Prexasertib] | 29.1 DSS | 26.2 DSS | 28.1 DSS
CNNCc1ccc(C(=O)NC(C)C)cc1 [Procarbazine] | 0 DSS | 0 DSS | 0 DSS
Cc1cc(-c2ncc(-c3cccnc3)cc2/C=C/c2ccccc2)cnc1-c1cccnc1 [Pyridoclax] | 4.1 DSS | 2.7 DSS | 0.2 DSS
Cn1cc(CNCC2CCN(c3ncc(C(=O)NO)cn3)CC2)c2ccccc21 [Quisinostat] | 14.9 DSS | 14.6 DSS | 13.6 DSS
CC(C)(C)c1cc(NC(=O)Nc2ccc(-c3cn4c(n3)sc3cc(OCCN5CCOCC5)ccc34)cc2)no1 [Quizartinib] | 0 DSS | 0 DSS | 0 DSS
Cn1c(Nc2ccc(C(F)(F)F)cc2)nc2cc(Oc3ccnc(-c4ncc(C(F)(F)F)[nH]4)c3)ccc21 [RAF265] | 0 DSS | 1.8 DSS | 2 DSS
CNC(=O)c1ccc(N2C(=S)N(c3ccc(C#N)c(C(F)(F)F)c3)C(=O)C23CCC3)cc1F [RD162] | 0.3 DSS | 2.7 DSS | 0.8 DSS
